Tests used:
[1] = system: cotton aphid (Aphis gossypii); assay: Cotton aphid test in the same manner, more definitive percent mortality at selected rates and exposure times (Table 3); type: in vivo; conditions: for Percent Mortality of Cotton Aphid on Cotton Plants: 72 hours exposure
Method: (§1) The compounds of formula I useful in the present invention were tested for insecticidal activity by observing mortality in a population of cotton aphid (Aphis gossypii) on treated cotton plants caused by a test compound, when compared to like populations of cotton aphid on untreated plants. These tests were conducted in the following manner:
For each rate of application of test compound, two seven-to-ten days old cotton seedlings (Gossypium hirsutium) grown in 7.6 cm diameter pots were selected for the test. Each test plant was infested with about 120 adult cotton aphids by placing onto each test plant cuttings of leaves from cotton plants grown in a cotton aphid colony. Once infested, the test plants were maintained for up to about 12 hours to allow complete translocation of the aphids onto the test plant. A solution comprising 1000 part per million (ppm) of each test compound was prepared by dissolving 10 milligrams of the test compound in 1 mL of acetone. Each solution was then diluted with 9 mL of a solution of 0.03 mL of polyoxyethylene(10) isooctylphenyl ether in 100 mL of water. About 2.5 mL of solution of each test compound was needed to spray each replicate of test plant (5 mL total for each test compound). If needed, the solution of 1000 ppm of test compound was serially diluted with a solution of 10% acetone and 300 ppm of polyoxyethylene(10) isooctylphenyl ether in water to provide solutions of each test compound for lower rates of application, for example, 300 ppm, 100 ppm, 30 ppm, or 10 ppm. Each replicate of test plant was sprayed with the solutions of test compound until run-off on both the upper and lower surfaces of the leaves. All the test plants were sprayed using a DeVilbus Atomizer Model 152 (Sunrise Medical, Carlsbad, Calif.) at a pressure of about 0.63-0.74 kilogram per square centimeter from a distance of about 30.5 centimeters from the test plants. For comparison purposes, a solution of a standard, such as amitraz or demethylchlordimeform (DCDM), prepared in a manner analogous to that set forth above, as well as a solution of 10% acetone and 300 ppm of polyoxyethylene(10) isooctylphenyl ether in water containing no test compound were also sprayed onto test plants. Upon completion of spraying the solutions of test compound, the solution of standard, and the solution containing no test compound, the plants were allowed to dry. […] After this time, each plant was assessed for percent mortality caused by the test compound when compared to the population of aphids that was infested onto the test plants prior to treatment with test compound. […] If there was 75% mortality or greater of the cotton aphid, a test compound was designated as being more insecticidally active (A).
In a test conducted in the same manner as set forth above, certain compounds of formula I were tested to determine a more definitive percent mortality of cotton aphid.

[2] = system: cotton aphid (Aphis gossypii); assay: Cotton aphid mortality on sprayed cotton plants, assessed after 24 hours (Table 2); type: in vivo; conditions: read-out: Mortality of Cotton Aphid On Cotton Plants: More Than 75% Mortality (A)
Method: as §1
For each rate of application of test compound, two seven-to-ten days old cotton seedlings (Gossypium hirsutium) grown in 7.6 cm diameter pots were selected for the test. Each test plant was infested with about 120 adult cotton aphids by placing onto each test plant cuttings of leaves from cotton plants grown in a cotton aphid colony. Once infested, the test plants were maintained for up to about 12 hours to allow complete translocation of the aphids onto the test plant. A solution comprising 1000 part per million (ppm) of each test compound was prepared by dissolving 10 milligrams of the test compound in 1 mL of acetone. Each solution was then diluted with 9 mL of a solution of 0.03 mL of polyoxyethylene(10) isooctylphenyl ether in 100 mL of water. […] After this time, each plant was assessed for percent mortality caused by the test compound when compared to the population of aphids that was infested onto the test plants prior to treatment with test compound. […]

tobacco hornworm = conditions: in vivo; cited from earlier work

SMILES: CN1CCC(=C2c3ccccc3Oc3ccccc32)CC1 [Compound 8, 9-(1-methyl-4-piperidylidene)xanthene]
- mortality at 100 ppm ([1]; Aphis gossypii, 96 h, read-out: Percent Mortality of Cotton Aphid on Cotton Plants): 88%
- mortality at 100 ppm [2]: > 75%

SMILES: COc1ccc2c(c1)N(CCCN(C)C)c1ccccc1S2 [Compound 205]
- Percent Mortality of Cotton Aphid on Cotton Plants ([1]; 500 ppm): 40%

SMILES: CN1CCN(CCCN2c3ccccc3Sc3ccc(C(F)(F)F)cc32)CC1.Cl.Cl [Compound 207]
- Percent Mortality of Cotton Aphid on Cotton Plants ([1]; 1000 ppm): 25%

SMILES: Cl.Cl.OCCN1CCN(CCCN2c3ccccc3Sc3ccc(C(F)(F)F)cc32)CC1 [Compound 208]
- Percent Mortality of Cotton Aphid on Cotton Plants ([1]; 500 ppm): 43%

SMILES: CNCCCN1c2ccccc2CCc2ccccc21 [Desipramine, desipramine]
- anti-feeding activity against tobacco hornworm (tobacco hornworm): anti-feeding activity

SMILES: CN(C)CCC=C1c2ccccc2CCc2ccccc21 [amitriptyline]
- anti-feeding activity against tobacco hornworm (tobacco hornworm): anti-feeding activity
